# Reference: ChEMBL document CHEMBL5696439 (Cancer Res, 2010)
# The source made the active and inactive calls. The calls are words filed in the database; no cut-off is given here.
# Key:
# [1] = biological target: Beta-adrenergic receptor kinase 1 (Homo sapiens) (UniProt P25098); assay: Inhibition of recombinant human full-length His-tagged ADRBK1 expressed in insect cells at 2 uM using Ser/Thr 16 as substrate measured after 1 hr by Z'-LYTE assay relative to control; settings: Insect cell
# [2] = biological target: Cyclin-dependent kinase 5/CDK5 activator 1 (Homo sapiens) (UniProt Q00535+Q15078); assay: Inhibition of recombinant human full-length GST/His-tagged CDK5/p35 expressed in insect cells at 2 uM using Ser/Thr 12 as substrate measured after 1 hr by Z'-LYTE assay relative to control; settings: Insect cell
# [3] = biological target: Dual specificity tyrosine-phosphorylation-regulated kinase 1A (Homo sapiens) (UniProt Q13627); assay: Inhibition of recombinant human full-length GST-tagged DYRK1A expressed in insect cells at 2 uM using Ser/Thr 18 as substrate measured after 1 hr by Z'-LYTE assay relative to control; settings: Insect cell
# [4] = biological target: Glycogen synthase kinase-3 beta (Homo sapiens) (UniProt P49841); assay: Inhibition of recombinant human full-length His-tagged GSK3B expressed in baculovirus expression system at 2 uM using Ser/Thr 09 as substrate measured after 1 hr by Z'-LYTE assay relative to control
# [5] = biological target: Homeodomain-interacting protein kinase 4 (Homo sapiens) (UniProt Q8NE63); assay: Inhibition of recombinant human full-length GST-tagged HIPK4 expressed in insect cells at 2 uM using Ser/Thr 18 as substrate measured after 1 hr by Z'-LYTE assay relative to control; settings: Insect cell
# [6] = biological target: Vascular endothelial growth factor receptor 2 (Homo sapiens) (UniProt P35968); assay: Inhibition of recombinant human His-tagged KDR (789-1356 residues) expressed in insect cells at 2 uM using […] as substrate measured after 1 hr by Z'-LYTE assay relative to control; settings: Insect cell
# [7] = biological target: Mitogen-activated protein kinase kinase kinase kinase 2 (Homo sapiens) (UniProt Q12851); assay: Inhibition of recombinant human full-length His-tagged MAP4K2 expressed in insect cells at 2 uM using Ser/Thr 07 as substrate measured after 1 hr by Z'-LYTE assay relative to control; settings: Insect cell
# [8] = biological target: Mitogen-activated protein kinase kinase kinase kinase 5 (Homo sapiens) (UniProt Q9Y4K4); assay: Inhibition of recombinant human full length GST-tagged MAP4K5 expressed in insect cells at 2 uM using Ser/Thr 07 as substrate measured after 1 hr by Z'-LYTE assay relative to control; settings: Insect cell
# [9] = biological target: Hepatocyte growth factor receptor (Homo sapiens) (UniProt P08581); assay: Inhibition of recombinant human His-tagged MET (956-1390 residues) expressed in baculovirus expression system at 2 uM using Tyr 06 as substrate measured after 1 hr by Z'-LYTE assay relative to control
# [10] = test system: Hepatocyte growth factor receptor (Homo sapiens), P08581 [M1250T]; assay: Inhibition of recombinant human His-tagged MET M1250T mutant (956-1390 residues) expressed in insect cells at 2 uM using Tyr 06 as substrate measured after 1 hr by Z'-LYTE assay relative to control; settings: Insect cell
# [11] = biological target: Serine/threonine-protein kinase 26 (Homo sapiens) (UniProt Q9P289); assay: Inhibition of recombinant human full length GST-tagged MST4 expressed in insect cells at 2 uM using Ser/Thr 07 as substrate measured after 1 hr by Z'-LYTE assay relative to control; settings: Insect cell
# [12] = biological target: Serine/threonine-protein kinase Nek2 (Homo sapiens) (UniProt P51955); assay: Inhibition of recombinant human full length His-tagged NEK2 expressed in baculovirus expression system at 2 uM using Ser/Thr 07 as substrate measured after 1 hr by Z'-LYTE assay relative to control
# [13] = test system: Platelet-derived growth factor receptor alpha (Homo sapiens), P16234 [D842V]; assay: Inhibition of recombinant human GST-tagged PDGFRA D842V mutant (550-1089 residues) expressed in baculovirus expression system at 2 uM using Tyr 04 as substrate measured after 1 hr by Z'-LYTE assay relative to control
# [14] = biological target: Serine/threonine-protein kinase PLK2 (Homo sapiens) (UniProt Q9NYY3); assay: Inhibition of recombinant human full length GST-tagged PLK2 expressed in baculovirus expression system at 2 uM using Ser/Thr 16 as substrate measured after 1 hr by Z'-LYTE assay relative to control
# [15] = biological target: Ribosomal protein S6 kinase beta-1 (Homo sapiens) (UniProt P23443); assay: Inhibition of recombinant human GST-tagged RPS6KB1 (1-421 residues) expressed in insect cells at 2 uM using Ser/Thr 07 as substrate measured after 1 hr by Z'-LYTE assay relative to control; settings: Insect cell
# [16] = test system: Rat1; assay: Inhibition of mTORC2 in rat Rat1 cells assessed as AKT phosphorylation at S473 level preincubated for 1 hrs in the presence of IGF-1 stimulation by immunoblot assay; assay type: cell-based; settings: dose 0.01-2 µmol/L
# [17] = test system: Rat1; assay: Inhibition of mTORC2 in rat Rat1 cells assessed as reduction in AKT phosphorylation at T308 level at 0.01 to 2 uM incubated for 1 hrs in the presence of IGF-1 stimulation by immunoblot assay; assay type: cell-based; settings: dose 0.01-2 µM
# [18] = test system: MG-63; assay: Antiproliferative activity against human MG-63 cells assessed as cell growth inhibition incubated for 24 hrs by MTS assay; assay type: functional, cell-based; settings: MG-63, 24 h
# [19] = test system: HCT-116; assay: Antiproliferative activity against human HCT-116 cells assessed as cell growth inhibition incubated for 24 hrs by MTS assay; assay type: functional, cell-based; settings: HCT-116, 24 h
# [20] = test system: A549; assay: Antiproliferative activity against human A549 cells assessed as cell growth inhibition at 10 micromol/L incubated for 3 days by MTS assay relative to control; assay type: functional; settings: A549, 72 h, dose 10 µmol/L, time 3 day
# [21] = test system: MDA-MB-361; assay: Antiproliferative activity against human MDA-MB-361 cells assessed as cell growth inhibition incubated for 1 days by MTS assay; assay type: functional, cell-based; settings: MDA-MB-361, 24 h
# [22] = test system: MDA-MB-468; assay: Induction of apoptosis in human MDA-MB-468 cells assessed as reduction in S phase at 1 micromol/L incubated for 24 hrs by FACS analysis; assay type: functional, cell-based; settings: dose 1.0 µmol/L
# [23] = test system: PC3MM2; assay: Antitumor activity against human PC3MM2 cells xenografted in female nude mouse model assessed as suppression in P-S6K at T389 level at 50 mg/kg, iv administered once a week and measured at least 8 hrs by immunoblot analysis; assay type: functional, organism-based
# [24] = test system: HT-29; assay: Antitumor activity against human HT-29 cells xenografted in female nude mouse model assessed as suppression in P-S6K at T389 level at 50 mg/kg, iv administered once a week and measured at least 8 hrs by immunoblot analysis; assay type: functional, organism-based
# [25] = test system: A549; assay: Antitumor activity against VHL null-human A549 cells xenografted in female nude mouse model assessed as suppression in tumor growth at 25 mg/kg, po qd administered as 5 days on/2 days off regimen for 4 cycles relative to control; assay type: functional; settings: time 28 day
# [26] = biological target: mTORC2 (Homo sapiens) (UniProt P42345+Q6R327+Q9BVC4+Q9BPZ7); settings: PC3MM2, dose 0.1-1 µM, time 6.0 hrs
# Sequence of Mitogen-activated protein kinase kinase kinase kinase 2 (Homo sapiens) (Q12851 whole entry): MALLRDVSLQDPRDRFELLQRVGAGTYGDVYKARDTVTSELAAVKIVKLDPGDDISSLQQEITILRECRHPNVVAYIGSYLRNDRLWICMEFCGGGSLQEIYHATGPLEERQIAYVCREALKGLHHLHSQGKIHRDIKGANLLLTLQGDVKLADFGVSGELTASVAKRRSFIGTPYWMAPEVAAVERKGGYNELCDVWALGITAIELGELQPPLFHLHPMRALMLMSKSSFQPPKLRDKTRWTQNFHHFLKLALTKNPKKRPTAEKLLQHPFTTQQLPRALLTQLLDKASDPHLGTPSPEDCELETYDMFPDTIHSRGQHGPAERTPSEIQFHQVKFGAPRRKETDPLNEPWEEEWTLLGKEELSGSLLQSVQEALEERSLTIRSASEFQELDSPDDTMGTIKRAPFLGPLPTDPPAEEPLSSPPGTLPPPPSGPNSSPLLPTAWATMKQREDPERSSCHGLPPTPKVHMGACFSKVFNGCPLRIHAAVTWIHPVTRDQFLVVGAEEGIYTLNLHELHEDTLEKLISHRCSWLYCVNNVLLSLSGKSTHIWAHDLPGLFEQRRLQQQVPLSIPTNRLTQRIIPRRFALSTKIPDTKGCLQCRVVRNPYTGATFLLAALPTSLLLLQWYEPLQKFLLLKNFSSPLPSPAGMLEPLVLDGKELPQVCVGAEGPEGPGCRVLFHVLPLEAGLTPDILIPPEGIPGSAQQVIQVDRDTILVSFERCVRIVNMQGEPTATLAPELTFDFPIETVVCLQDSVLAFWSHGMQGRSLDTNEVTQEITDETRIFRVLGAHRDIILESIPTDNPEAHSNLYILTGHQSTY
# Sequence of Beta-adrenergic receptor kinase 1 (Homo sapiens) (P25098 whole entry): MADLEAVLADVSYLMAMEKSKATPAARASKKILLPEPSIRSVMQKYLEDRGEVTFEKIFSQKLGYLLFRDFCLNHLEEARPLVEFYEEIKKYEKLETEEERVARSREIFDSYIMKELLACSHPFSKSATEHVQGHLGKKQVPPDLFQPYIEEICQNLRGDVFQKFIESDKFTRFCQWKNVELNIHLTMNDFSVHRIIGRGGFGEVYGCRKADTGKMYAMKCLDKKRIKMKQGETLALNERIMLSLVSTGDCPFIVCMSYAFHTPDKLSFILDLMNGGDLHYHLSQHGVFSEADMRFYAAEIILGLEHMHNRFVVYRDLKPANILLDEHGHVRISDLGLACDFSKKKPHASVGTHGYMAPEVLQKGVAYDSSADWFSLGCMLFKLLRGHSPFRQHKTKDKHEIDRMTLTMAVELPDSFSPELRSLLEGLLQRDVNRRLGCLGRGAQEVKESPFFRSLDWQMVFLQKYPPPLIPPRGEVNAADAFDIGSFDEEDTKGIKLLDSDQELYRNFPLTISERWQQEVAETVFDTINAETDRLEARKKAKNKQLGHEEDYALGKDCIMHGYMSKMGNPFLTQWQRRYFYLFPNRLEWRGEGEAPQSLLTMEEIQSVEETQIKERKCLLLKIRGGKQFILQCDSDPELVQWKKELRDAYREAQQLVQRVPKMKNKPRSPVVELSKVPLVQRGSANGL
# Sequence of Vascular endothelial growth factor receptor 2 (Homo sapiens) (P35968 whole entry, the tested form may be a part): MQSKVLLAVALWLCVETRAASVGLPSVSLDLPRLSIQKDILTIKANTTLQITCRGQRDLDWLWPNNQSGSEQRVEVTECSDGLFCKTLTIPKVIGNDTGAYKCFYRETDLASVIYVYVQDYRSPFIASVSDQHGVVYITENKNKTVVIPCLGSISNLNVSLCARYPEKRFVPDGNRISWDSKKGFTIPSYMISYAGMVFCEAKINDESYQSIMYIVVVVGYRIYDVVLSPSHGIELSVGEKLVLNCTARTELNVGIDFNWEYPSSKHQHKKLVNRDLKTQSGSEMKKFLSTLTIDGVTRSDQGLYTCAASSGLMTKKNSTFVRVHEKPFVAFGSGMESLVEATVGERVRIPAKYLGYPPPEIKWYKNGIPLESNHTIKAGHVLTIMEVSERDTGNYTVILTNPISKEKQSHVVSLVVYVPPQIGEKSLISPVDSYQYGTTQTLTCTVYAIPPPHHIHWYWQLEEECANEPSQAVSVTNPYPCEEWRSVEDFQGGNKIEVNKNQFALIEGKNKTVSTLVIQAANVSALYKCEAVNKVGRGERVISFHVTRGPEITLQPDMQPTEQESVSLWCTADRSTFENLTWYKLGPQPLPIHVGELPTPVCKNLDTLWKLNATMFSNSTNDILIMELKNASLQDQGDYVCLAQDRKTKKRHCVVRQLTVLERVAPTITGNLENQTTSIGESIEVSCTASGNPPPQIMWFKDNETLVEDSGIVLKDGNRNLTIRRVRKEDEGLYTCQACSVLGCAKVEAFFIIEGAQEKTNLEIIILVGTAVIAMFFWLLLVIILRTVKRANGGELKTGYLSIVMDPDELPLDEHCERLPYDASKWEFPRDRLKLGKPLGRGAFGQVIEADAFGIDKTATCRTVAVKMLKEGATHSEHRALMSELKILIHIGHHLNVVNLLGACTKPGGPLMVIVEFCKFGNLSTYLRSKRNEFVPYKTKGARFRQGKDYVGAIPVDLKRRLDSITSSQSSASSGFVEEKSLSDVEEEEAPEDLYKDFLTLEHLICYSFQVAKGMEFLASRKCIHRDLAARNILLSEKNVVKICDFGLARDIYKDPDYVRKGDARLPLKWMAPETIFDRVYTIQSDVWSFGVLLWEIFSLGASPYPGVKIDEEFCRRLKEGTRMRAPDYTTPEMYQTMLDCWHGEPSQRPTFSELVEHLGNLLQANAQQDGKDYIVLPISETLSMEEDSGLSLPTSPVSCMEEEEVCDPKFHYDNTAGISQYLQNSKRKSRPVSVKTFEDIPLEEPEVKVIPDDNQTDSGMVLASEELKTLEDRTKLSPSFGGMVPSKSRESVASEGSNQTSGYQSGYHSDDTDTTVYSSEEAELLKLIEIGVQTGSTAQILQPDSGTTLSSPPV
# Sequence of Glycogen synthase kinase-3 beta (Homo sapiens) (P49841 whole entry, looked up): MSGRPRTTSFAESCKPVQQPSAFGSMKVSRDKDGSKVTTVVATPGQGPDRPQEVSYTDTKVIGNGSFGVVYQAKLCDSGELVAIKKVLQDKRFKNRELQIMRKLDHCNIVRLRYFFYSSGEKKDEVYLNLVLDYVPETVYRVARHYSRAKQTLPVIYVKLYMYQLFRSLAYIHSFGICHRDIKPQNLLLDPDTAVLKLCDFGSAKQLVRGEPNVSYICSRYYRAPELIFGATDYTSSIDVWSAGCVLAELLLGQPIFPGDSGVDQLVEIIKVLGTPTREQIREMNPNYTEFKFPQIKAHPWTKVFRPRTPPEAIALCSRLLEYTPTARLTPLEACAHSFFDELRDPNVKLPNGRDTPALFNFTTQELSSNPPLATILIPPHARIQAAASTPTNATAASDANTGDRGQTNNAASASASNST
# Sequence of Serine/threonine-protein kinase Nek2 (Homo sapiens) (P51955 whole entry, the tested form may be a part): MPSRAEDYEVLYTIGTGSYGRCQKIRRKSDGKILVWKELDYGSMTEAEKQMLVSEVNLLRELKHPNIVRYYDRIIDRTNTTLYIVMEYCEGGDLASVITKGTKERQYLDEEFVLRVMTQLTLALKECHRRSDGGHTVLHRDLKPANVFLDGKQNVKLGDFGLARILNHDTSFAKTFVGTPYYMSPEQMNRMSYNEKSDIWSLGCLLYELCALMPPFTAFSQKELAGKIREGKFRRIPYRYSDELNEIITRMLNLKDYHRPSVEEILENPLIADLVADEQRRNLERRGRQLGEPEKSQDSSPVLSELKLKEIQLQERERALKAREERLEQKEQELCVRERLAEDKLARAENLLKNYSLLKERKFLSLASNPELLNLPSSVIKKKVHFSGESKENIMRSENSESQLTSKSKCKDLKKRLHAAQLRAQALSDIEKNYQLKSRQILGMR
# Sequence of Cyclin-dependent kinase 5/CDK5 activator 1 (Homo sapiens) (Q00535 whole entry): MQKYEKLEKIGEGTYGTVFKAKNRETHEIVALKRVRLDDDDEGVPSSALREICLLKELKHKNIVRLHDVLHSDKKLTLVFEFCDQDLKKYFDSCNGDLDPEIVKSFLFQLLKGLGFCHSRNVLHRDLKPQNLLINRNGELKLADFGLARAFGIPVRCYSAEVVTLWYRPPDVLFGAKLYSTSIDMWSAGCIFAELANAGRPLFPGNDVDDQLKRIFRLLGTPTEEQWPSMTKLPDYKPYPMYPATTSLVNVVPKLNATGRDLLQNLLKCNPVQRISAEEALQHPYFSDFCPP
# Sequence of Cyclin-dependent kinase 5/CDK5 activator 1 (Homo sapiens) (Q15078 99-307 partner limits assumed): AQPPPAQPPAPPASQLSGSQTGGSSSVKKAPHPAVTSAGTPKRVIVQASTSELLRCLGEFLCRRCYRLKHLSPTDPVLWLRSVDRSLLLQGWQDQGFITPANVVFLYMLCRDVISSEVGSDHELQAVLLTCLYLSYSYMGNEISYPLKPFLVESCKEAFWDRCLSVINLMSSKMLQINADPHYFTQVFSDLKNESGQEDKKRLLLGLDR
# Sequence of Homeodomain-interacting protein kinase 4 (Homo sapiens) (Q8NE63 whole entry, the tested form may be a part): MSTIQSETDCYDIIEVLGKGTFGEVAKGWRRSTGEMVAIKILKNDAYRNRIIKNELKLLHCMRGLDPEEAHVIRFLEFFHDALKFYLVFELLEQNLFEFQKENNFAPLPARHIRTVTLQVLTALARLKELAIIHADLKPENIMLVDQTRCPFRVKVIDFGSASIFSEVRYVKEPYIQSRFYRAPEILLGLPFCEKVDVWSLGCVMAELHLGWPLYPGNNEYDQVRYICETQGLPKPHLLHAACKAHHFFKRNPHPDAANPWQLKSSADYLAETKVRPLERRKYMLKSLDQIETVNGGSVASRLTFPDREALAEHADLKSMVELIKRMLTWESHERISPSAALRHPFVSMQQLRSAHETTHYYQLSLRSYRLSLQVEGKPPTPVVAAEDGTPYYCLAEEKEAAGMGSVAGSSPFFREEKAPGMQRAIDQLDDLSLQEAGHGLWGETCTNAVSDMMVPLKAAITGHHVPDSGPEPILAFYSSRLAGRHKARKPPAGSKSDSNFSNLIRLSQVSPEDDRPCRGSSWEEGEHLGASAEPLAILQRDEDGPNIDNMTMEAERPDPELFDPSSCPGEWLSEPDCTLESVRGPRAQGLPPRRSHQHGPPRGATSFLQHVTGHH
smiles,measurement,setting,value
CNC(=O)Nc1ccc(-c2nc(N3CC4CCC(C3)O4)c3cnn(C4CCC5(CC4)OCCO5)c3n2)cc1,inhibition,[1],-1%
same,inhibition,[2],-4%
same,inhibition,[3],2%
same,inhibition,[4],1%
same,inhibition,[5],7%
same,inhibition,[6],7%
same,inhibition,[7],3%
same,inhibition,[8],19%
same,inhibition,[9],2%
same,inhibition,[10],1%
same,inhibition,[11],7%
same,inhibition,[12],10%
same,inhibition,[13],4%
same,inhibition,[14],1%
same,inhibition,[15],2%
same,inhibition,[16],Active
same,inhibition,[17],inactive
same,IC50,[18],25 nM
same,IC50,[19],380 nM
same,inhibition at 10 µM,[20],100%
same,IC50,[21],20000 nM
same,Activity,[22],Active
same,Activity,[23],Active
same,Activity,[24],Active
same,Activity,[25],100%
same,inhibition,[26],inactive
